Measured values as given in EP4458352A1, “EICOSAPENTAENOIC ACID ESTER DERIVATIVES FOR THE TREATMENT OF OBESITY” (Technische Universität Dresden, priority 2023, dated 2024).

Tests used:
[1] = test system: primary adrenocortical cells; assay: Flow cytometry with Mitotracker Green and TMRE in primary adrenocortical cells treated with SC-26196; type: cell-based, WT C57BL/6J mice; details: SC-26196 10 µM, 18 h vs DMSO; n=6
Description: Adrenocortical cells (CD31-CD45-) were treated for 18 h with DMSO or SC-26196 (10 µM) and were then incubated with Mitotracker Green (0.25 µM; Invitrogen), TMRE (2.5 µM; Thermofisher), for 30 min at 37°C in FACS buffer (0.5 % BSA, 2 mM EDTA in PBS) in dark. Live cells were selected by DAPI staining. FACS was performed using LSR Fortessa X20 flow cytometer and data were analyzed with the FlowJo software.

[2] = test system: primary adrenal cell cultures; assay: Steroid hormone production (LC-MS/MS) in primary adrenal cell cultures treated with SC-26196, with or without ACTH or ARA; type: cell-based, WT C57BL/6J mice
Description: Adrenal glands or adrenal corteces were isolated from WT C57BL/6J mice, cleaned from the surrounding fat tissue and incubated in collagenase buffer (1.6 mg/ml collagenase type I, 1.6 mg/ml BSA) for 45 min at 37 °C, while shaking at 900 rpm. Dissociated cells were passed through 22 G needle and a 100 µm cell strainer and centrifuged at 300 × g for 5 min at 4 °C. Cells of a pool from two adrenals of each mouse were distributed in four 0.2 % gelatin-precoated wells of a 96-well plate in DMEM/F12 supplemented with 1 % FBS, 50 U/mL penicillin and 50 µg/mL streptomycin. Two hours after seeding 10 µM SC-26196 (Tocris, Wiesbaden-Nordenstadt, Germany) or same amount of carrier (DMSO) were added without changing the medium. In some experiments medium was additionally supplemented with 150 µM ARA (Sigma Aldrich, Germany) or same amount of solvent (endotoxin-free water). When induction of steroidogenesis was required, the medium was changed 18 h after treatment and the cells were incubated with or without 10 ng/mL ACTH for 60 min in the presence of either 10 µM SC-26196 or DMSO. Supernatants were kept for steroid hormone measurement and cell lysates were collected for transcriptional analysis. In some experiments, primary CD31-CD45- adrenocortical cells were treated or not for 18 h with 66 µM EPA (Sigma-Aldrich). Steroid hormones in plasma and cell culture supernatants were analyzed by LC-MS/MS as previously described (71). Fifty to hundred µL plasma or cell culture supernatants were extracted by solid phase extraction using positive pressure, followed by a dry-down under gentle stream of nitrogen. Residues were reconstituted in 100 µL of the initial LC mobile phase and 10 µL were injected for detection by the triple quadrupole mass spectrometer in multiple reaction-monitoring scan mode using positive electrospray ionization. Quantification of steroid concentrations was done by comparisons of ratios of analyte peak areas to respective peak areas of stable isotope labeled internal standards obtained in samples to those of calibrators.

NCI-H295R cells = assay: Steroid production in forskolin-treated NCI-H295R cells treated with SC-26196; type: cell-based, Human; details: FADS2 inhibition (SC-26196)
Description: NCI-H295R cells (obtained from ATCC Cat# CRL-2128) were maintained in DMEM/F12 medium supplemented with 2.5 % Nu-Serum type I (Corning), 1 % Insulin Transferrin Selenium (ITS; Gibco), 50 U/mL penicillin and 50 µg/mL streptomycin. They were treated for 18 h with 10 µM SC-26196 or DMSO. In some experiments, NCI-H295R cells were treated or not for 48 h 66 µM EPA and in the last 24 h they were stimulated or not with forskolin (10 µM; Sigma-Aldrich).
Steroid hormones in plasma and cell culture supernatants were analyzed by LC-MS/MS as previously described (71). Fifty to hundred µL plasma or cell culture supernatants were extracted by solid phase extraction using positive pressure, followed by a dry-down under gentle stream of nitrogen. Residues were reconstituted in 100 µL of the initial LC mobile phase and 10 µL were injected for detection by the triple quadrupole mass spectrometer in multiple reaction-monitoring scan mode using positive electrospray ionization. Quantification of steroid concentrations was done by comparisons of ratios of analyte peak areas to respective peak areas of stable isotope labeled internal standards obtained in samples to those of calibrators.

[3] = SC-26196 10 µM 18 h, then ACTH 10 ng/mL for 1 h, n=12

N#CC(CCCN1CCN(/N=C/c2cccnc2)CC1)(c1ccccc1)c1ccccc1 [SC-26196]
mitochondrial load (Mitogreen staining) [1]: decreased
mitochondrial membrane potential (TMRE staining) [1]: decreased
11-deoxycorticosterone production [2, 3]: abolished
aldosterone production [2, 3]: abolished
corticosterone production [2, 3]: abolished
progesterone production [2, 3]: abolished
cell viability ([2]; SC-26196-treated primary adrenal cell cultures, data not shown): without affecting cell viability
11-deoxycortisol production (NCI-H295R cells): reduced
progesterone production (NCI-H295R cells): reduced
